Test system: IGF-1
Assay: Example 13: serum IGF-1
Format: in vivo, cats with compromised kidney function
Conditions: 8 hours post administration; Group 1 IV Day 0, Group 2 SC Days 0 and 13
Experimental: The following study was undertaken to assess multiple points. First, the following experiments were conducted to determine if a formulation of capromorelin, when administered either intravenously or subcutaneously, can stimulate appetite in cats with compromised kidney function. Second, the following experiments were conducted to assess the pharmacokinetic profile of capromorelin in the serum of cats with compromised kidney function. Finally, the following experiments were conducted to determine if capromorelin accumulates in the serum after 14 days of treatment that is subcutaneously administered.
Sixteen cats with compromised kidney function were acclimatized for the following study. Animals assigned to Group 1 (n=6) received an intravenous administration of a capromorelin formulation (i.e., capromorelin in sterile water) at a dose of 0.75 mg/kg on Day 0 of the experiment. Animals assigned to Group 2 (n=6) received a subcutaneous administration of a capromorelin formulation (2.1% w/v capromorelin, 1% w/v benzyl alcohol, and citrate buffer) daily for 14 days at a dose of 2 mg/kg. Animals assigned to Group 3 (n=4) served as untreated controls. […] Diet consumption was also monitored on study days −7 until day 13 for the animals in Groups 2 and 3 only.

Q: `CN1N=C2CCN(C(=O)[C@@H](COCc3ccccc3)NC(=O)C(C)(C)N)C[C@@]2(Cc2ccccc2)C1=O.O=C(O)C(O)C(O)C(=O)O` [capromorelin] was tested. Which “serum concentration of IGF-1 as a result of treatment” value did it give?
A: increased in serum concentration of IGF-1

— patent US11090292B2, “Compositions and methods of use of an inappetance-controlling compound” (Aratana Therapeutics, Inc., priority 2012, dated 2021)
